Test system: asymmetric di-methyl PABP1 in RKO cells
Test: In Cell Western (ICW) for asymmetric di-methyl PABP1 and DNA content in RKO cells
Type: cell-based
Procedure, shortened: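 RKO cells treated with compound for 48 h at 37 °C, then fixed, methanol-permeabilized and stained for asymmetric di-methyl PABP1 (800 nm) with DRAQ5 DNA stain (700 nm). Signal ratio normalized to DMSO and 20 μM reference-compound controls. IC50 from nine 3-fold dilutions in triplicate.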

[1] = Homo sapiens, RKO, In Cell Western

In the case of `CNCCN(C)Cc1cccc(-c2nc(C(=O)NCc3cn4ccsc4n3)c3cnn(C4CC4)c3n2)c1` [Compound 180], the IC50 [1] is reported as 0.897 µM.

For `CNCCN(C)Cc1cccc(-c2cc(C(=O)NCc3ccncc3)c3cnn(C(C)C)c3n2)c1` [Compound 182], the IC50 [1] was 3.55 µM.

`CC(C)n1ncc2c(C(=O)N(C)CC3CCOCC3)cc(-c3cccc(CN(C)CCN)c3)nc21` [Compound 256] showed an IC50 [1] of 9.56 µM.

In the case of `CN(CCN)Cc1cccc(-c2ccc(C(=O)NCC3CCOCC3)c(N(C)CC3CC3)c2)c1` [Compound 263], the IC50 [1] is reported as 20 µM.

`CNCCN(C)Cc1cccc(-c2cc(C(=O)N(C)Cc3ccccn3)c3cnn(C(C)C)c3n2)c1` [Compound 300] showed an IC50 [1] of 6.38 µM.

`Cc1cc(C)c(CNC(=O)c2cc(-c3cccc(CN(C)CCN)c3)nc3c2cnn3C(C)C)c(=O)[nH]1` [Compound 360] showed an IC50 (48 hours) of 0.934 µM.

`CNCCN(C)Cc1ccc(-c2cc(C(=O)NCc3c(C)cc(C)[nH]c3=O)c(C)c3n[nH]cc23)cc1` [Compound 362] was tested, and the IC50 (Homo sapiens, RKO, 48 h) was ≥ 20 µM.

`CNCCN(C)Cc1cccc(-c2cc(C(=O)NCc3c(C)cc(C)[nH]c3=O)c3cnn(C(C)C)c3c2)c1` [Compound 367] was tested, and the IC50 (48 hours) was 6.48 µM.

`CNCCN(C)Cc1cccc(-c2cc(C(=O)NCc3c(C)cc(C)[nH]c3=O)c3cnn(C(C)C)c3n2)c1` [Compound 368] was tested, and the IC50 (48 hours) was 1.01 µM.

For `CNCCN(C)Cc1cccc(-c2cc(C(=O)NCc3c(C)cc(C)[nH]c3=O)c(C)c3[nH]ncc23)c1` [Compound 372], the IC50 (48 hours) was ≥ 20 µM.

From patent publication US20170280720A1, “ARGININE […] INHIBITORS AND USES THEREOF” (EPIZYME, INC., priority 2014, published 2017)
